We go through 4 substances from patent US20210198284A1, “GOLD COMPOSITIONS AND METHODS OF USE THEREOF” (THE UNIVERSITY OF MASSACHUSETTS, priority 2018, published 2021).

Holding throughout (type): cell-based
Test [1] has as its system C. albicans ATCC 90028. As to the kind of experiment: Antifungal MIC.
Test [2] relates to Gram-negative strains. Nature of the test: In vitro antimicrobial activities, Gram-negative strains taken together. The conditions noted are these: Gram-negative strains tested. The protocol: Antibacterial assay. The minimum inhibitory concentrations (MICs) and the minimum bactericidal concentrations (MBCs) were determined by the broth microdilution method as described in the CLSI (The Clinical & Laboratory Standards Institute) guidelines (Performance standards for antimicrobial susceptibility testing: Clinical and Laboratory Standards Institute (CLSI), Twenty-Fifth informational supplement. Document M100-S25: […]; Vol. 35). All bacterial strains were cultured in cation-adjusted Muller Hinton broth (CAMHB) up to log-phase and then diluted to give a concentration of 7.5×10^5 CFU/mL. The gold complexes were dissolved in DMSO or water as stock solutions, which were then serially diluted two-fold in a 96-well plate. Aliquots (100 μL) of the dilutions were mixed with equal volumes of the bacterium suspension in a 96 well plate (in triplicates). The plates were incubated at 37° C. for 18 h without shaking. Negative and positive controls were included in the same well plate with wells having the culture medium only and bacteria solution only, respectively. The sample concentration that gave inhibition values above 90% were determined as MICs as calculated from absorbance values at 600 nm (OD600) obtained using a Tecan SPARK IOM plate reader. […] The sample concentration that gave no colony formed on agar plates were determined as MBCs. […]

Test [3] deals with C. neoformans KN99. As to the kind of experiment: Antifungal MIC.
In test [4] the test system is C. neoformans ATCC 208821. Nature of the test: Antifungal MIC. To be noted: for MIC: C. neoformans ATCC 208821.
Test [5] has as its system K. pneumoniae. As to the kind of experiment: Antimicrobial screening of auranofin analogs. An excerpt: (§1) Auranofin analogs were synthesized by varying the structure of the thio-sugar ligand and the phosphine ligands. These analogs were screened for antimicrobial activity against 5 key ESKAPE pathogens and E. coli. (Table 3). The “ESKAPE” pathogens consist of six pathogens with growing multidrug resistant virulence: Enterococcus faecium (gram-positive), Staphylococcus aureus (gram-positive), Klebsiella pneumoniae (gram-negative), Acinetobacter (gram-negative), Pseudomonas aeruginosa (gram-negative) and Eterobacter (gram-negative). According to the data from the Centers for Disease Control and Prevention (CDC), two-thirds of all clinical infections are caused by these six ESKAPE bacteria.

For test [6], the system named is MRSA. As to the kind of experiment: Antimicrobial screening of auranofin analogs.
From the text: as §1

For test [7], the system named is S. aureus. As to the kind of experiment: Antimicrobial screening of auranofin analogs.
From the text: as §1

The subject of test [8] is P. aeruginosa. As to the kind of experiment: Antimicrobial screening of auranofin analogs.
From the text: as §1

Test [9] deals with E. faecalis. Nature of the test: Antimicrobial screening of auranofin analogs.
From the text: as §1

The test system of test [10] is E. cloacae. Nature of the test: Antimicrobial screening of auranofin analogs.
From the text: as §1

The subject of test [11] is A549 cells. As to the kind of experiment: Cytotoxicity assay (resazurin). To be noted: 20 h, mean±S.E.M. from two independent experiments. In short, it runs like this: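 A549 cells (5×10^3/well) were exposed to two-fold serial dilutions from 128 μg/mL (compounds 9-17 from 1,280 μg/mL) for 20 h at 37 °C. Resazurin was then added for 3 h and fluorescence read at ex 560/em 590 nm. IC50 came from curve fitting of inhibition vs log concentration; triplicates, repeated twice.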

For “(2,3,4,6-Tetra-O-acetyl-1-thio-β-D-glucopyranosato) (triethylphosphine) gold(I) [Compound 1, reference compound]”, the MIC in test [1] was greater than 32 µg/mL; in [3], 16 µg/mL; in test [4], 8 µg/mL. Moreover, the activity in words result is listed as “no activity” in test [2], “lacked significant activity” in [5], “lacked significant activity” in test [8] and “lacked significant activity” in test [10]. Also, the “antifungal activity in words” value in [4] (C. neoforman, strain not named) was “moderate antifungal activity”. The “bactericidal activity at the lowest tested concentration” value in test [6] is no more than 0.25 µg/mL; in [7], no more than 0.5 µg/mL; in [9], no more than 0.5 µg/mL. Also, the “IC50 against A549 cells” value in test [11] is 7.7 ± 1.3 µg/mL.
As for “(2-Mercaptoethanolato)(trimethylphosphine) gold (I) [Compound 27]”, the “IC50 against A549 cells” value in [11] came to 12.3 ± 3.1 µg/mL.
In the case of “[2,3,4,6-Tetra-O-acetyl-α-D-glucopyranosyl (1→4)-2,3,6-tri-O-acetyl-1-thio-β-D-glucopyranosato](triethylphosphine) gold(I) [Compound 5]”, the MIC in [1] and in test [4] was greater than 32 µg/mL in each case. Moreover, the “IC50 against A549 cells” value in [11] came out at 15.2 ± 0.3 µg/mL.
For the substance “(2-Aminobenzenethiolato)(triethylphosphine) gold(I) [Compound 19]”, the MIC in test [3] came out at 2 µg/mL. The “IC50 against A549 cells” value in test [11] amounted to 7.5 ± 0.1 µg/mL.

The MIC is the smallest concentration in the dilution series that meets the test's criterion for growth inhibition. Low readings indicate inhibition by little substance, high ones a need for much substance.
